In patent publication US12655142B2 (Merck Patent GmbH, priority 2019, dated 2026):

Columns and labels:
[1] = molecular target: T1, GIST430/654 cell line expressing mutated constitutively active cKIT receptor tyrosine kinase (Δ560-576 deletion and V654A point mutation) (Homo sapiens, UniProt P10721, DEL560-576/V654A); assay: Cellular cKIT autophosphorylation (phospho-Y307-cKIT, Luminex bead assay) in GIST430/654 cells; type: cell-based; conditions: compounds 45 min, read-out: GIST 430/654 IC50
T1 construct: endogenous in cells; host or cells: GIST430/654 cells
How it was run: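 GIST430 (Δ560-576) and imatinib-resistant GIST430/654 (plus V654A; grown with 100 nM imatinib) cells were plated in IMDM/15% FCS and treated next day with serially diluted compound for 45 min. Lysates were captured on anti-total-cKIT Luminex beads overnight at 4 °C and probed for phospho-Y307. IC50 was taken from percent of 0.3% DMSO control.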

c-Kit(V654A) = molecular target: T2, c-Kit(V654A) (Homo sapiens, UniProt P10721, V654A); assay: c-Kit(V654A) assay (33P-ATP filter binding kinase assay); type: biochemical; conditions: recombinant human c-Kit aa 544-end V654A, ATP 200 μM
T2 construct: recombinant human c-Kit, amino acids 544-end containing the V654A mutation; GST (N)
How it was run: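 Radiometric filter-binding read-out: substrate 33P incorporation counted by scintillation after P30 filtermat washes in 75 mM phosphoric acid and methanol. Enzyme: N-GST recombinant human c-Kit aa 544-end carrying V654A.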

T1 sequence (P10721 with tags, fused parts or gaps DEL560-576/V654A): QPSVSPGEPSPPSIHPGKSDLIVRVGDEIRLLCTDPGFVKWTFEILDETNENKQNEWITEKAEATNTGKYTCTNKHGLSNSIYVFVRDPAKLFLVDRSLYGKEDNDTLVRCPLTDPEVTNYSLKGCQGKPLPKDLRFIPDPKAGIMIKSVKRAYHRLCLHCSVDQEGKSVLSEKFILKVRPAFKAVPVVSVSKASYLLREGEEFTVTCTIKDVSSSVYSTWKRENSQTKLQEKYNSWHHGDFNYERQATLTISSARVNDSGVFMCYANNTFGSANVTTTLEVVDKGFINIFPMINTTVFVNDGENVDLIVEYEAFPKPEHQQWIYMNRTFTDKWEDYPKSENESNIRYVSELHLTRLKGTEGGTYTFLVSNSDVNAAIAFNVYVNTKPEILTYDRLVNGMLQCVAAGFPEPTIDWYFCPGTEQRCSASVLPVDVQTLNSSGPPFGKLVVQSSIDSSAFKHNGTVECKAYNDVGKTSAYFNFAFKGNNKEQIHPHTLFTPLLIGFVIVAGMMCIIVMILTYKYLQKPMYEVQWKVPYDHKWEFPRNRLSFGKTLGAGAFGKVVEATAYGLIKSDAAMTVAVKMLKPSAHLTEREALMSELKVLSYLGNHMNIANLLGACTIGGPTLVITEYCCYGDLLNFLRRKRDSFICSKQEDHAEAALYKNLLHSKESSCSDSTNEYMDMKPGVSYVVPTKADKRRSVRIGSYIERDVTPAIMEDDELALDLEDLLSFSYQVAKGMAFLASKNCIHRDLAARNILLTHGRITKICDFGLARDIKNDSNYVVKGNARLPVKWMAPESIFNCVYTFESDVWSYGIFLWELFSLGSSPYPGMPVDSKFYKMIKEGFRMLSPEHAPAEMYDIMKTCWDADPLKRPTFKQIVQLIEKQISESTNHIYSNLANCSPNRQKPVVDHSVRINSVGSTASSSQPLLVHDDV
T2 sequence (P10721 544-976 V654A): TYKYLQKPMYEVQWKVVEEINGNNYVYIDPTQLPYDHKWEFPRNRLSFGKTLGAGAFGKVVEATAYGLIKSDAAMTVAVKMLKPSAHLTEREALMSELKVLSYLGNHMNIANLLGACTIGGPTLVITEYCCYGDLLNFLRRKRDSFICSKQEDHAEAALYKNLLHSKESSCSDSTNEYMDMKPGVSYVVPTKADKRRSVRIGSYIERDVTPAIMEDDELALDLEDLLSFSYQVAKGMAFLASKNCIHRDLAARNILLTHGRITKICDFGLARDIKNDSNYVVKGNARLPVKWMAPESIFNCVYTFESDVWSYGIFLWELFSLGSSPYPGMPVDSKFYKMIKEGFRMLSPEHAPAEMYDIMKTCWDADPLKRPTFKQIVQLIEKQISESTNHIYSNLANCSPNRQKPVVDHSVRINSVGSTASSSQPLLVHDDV

Work on CN(C)CCCOc1ccn2c(-c3cc(NCc4ccc(-c5cnn(C)n5)cc4)ncn3)cnc2c1 [A135, {6-[7-(3-dimethylamino-propoxy)-imidazo[1,2-a]pyridin-3-yl]-pyrimidin-4-yl}-[4-(2-methyl-2H-[1,2,3]triazol-4-yl)-benzyl]-amine] yielded an IC50 [1] of 210 nM and an IC50 (c-Kit(V654A)) of 2 nM.

Molecule Cn1cc(-c2ccc(CNc3cc(-c4cnc5cc(OCCN6CCCC(F)(F)C6)ccn45)ncn3)cc2)cn1 [A136, 6-{7-[2-(3,3-difluoropiperidin-1-yl)ethoxy]imidazo[1,2-a]pyridin-3-yl}-N-{[4-(1-methyl-1H-pyrazol-4-yl)phenyl]methyl}pyrimidin-4-amine] has an IC50 [1] of 150 nM and an IC50 (c-Kit(V654A)) of 10 nM.

Work on CCN(CC)CCCOc1ccn2c(-c3cc(NCc4ccc(-c5cnn(C)c5)cc4)ncn3)cnc2c1 [A137, 6-{7-[3-(diethylamino)propoxy]imidazo[1,2-a]pyridin-3-yl}-N-{[4-(1-methyl-1H-pyrazol-4-yl)phenyl]methyl}pyrimidin-4-amine] yielded an IC50 [1] of 45 nM and an IC50 (c-Kit(V654A)) of 5.6 nM.

Work on Cn1cc(-c2ccc(CNc3cc(-c4cnc5cc(OCCN6CCS(=O)(=O)CC6)ccn45)ncn3)cc2)cn1 [A138, 4-[2-({3-[6-({[4-(1-methyl-1H-pyrazol-4-yl)phenyl]methyl}amino)pyrimidin-4-yl]imidazo[1,2-a]pyridin-7-yl}oxy)ethyl]-1lambda6-thiomorpholine-1,1-dione] yielded an IC50 [1] of 64 nM and an IC50 (c-Kit(V654A)) of 6.9 nM.

For Cn1cc(-c2ccc(CNc3cc(-c4cnc5cc(OCCN6CC(F)(F)C6)ccn45)ncn3)cc2)cn1 [A139, 6-{7-[2-(3,3-difluoroazetidin-1-yl)ethoxy]imidazo[1,2-a]pyridin-3-yl}-N-{[4-(1-methyl-1H-pyrazol-4-yl)phenyl]methyl}pyrimidin-4-amine], the IC50 [1] was 160 nM and the IC50 (c-Kit(V654A)) was 9.6 nM.

Cn1cc(-c2ccc(CNc3cc(-c4cnc5cc(OCCCN6CC(F)(F)C6)ccn45)ncn3)cc2)cn1 [A142, 6-{7-[3-(3,3-difluoroazetidin-1-yl)propoxy]imidazo[1,2-a]pyridin-3-yl}-N-{[4-(1-methyl-1H-pyrazol-4-yl)phenyl]methyl}pyrimidin-4-amine] showed an IC50 [1] of 65 nM and an IC50 (c-Kit(V654A)) of 7.3 nM.

Molecule Cn1cc(-c2ccc(CNc3cc(-c4cnc5cc(OCCCS(C)(=O)=O)ccn45)ncn3)cc2)cn1 [A143, {6-[7-(3-methanesulfonyl-propoxy)-imidazo[1,2-a]pyridin-3-yl]-pyrimidin-4-yl}-[4-(1-methyl-1H-pyrazol-4-yl)-benzyl]-amine] has an IC50 [1] of 380 nM and an IC50 (c-Kit(V654A)) of 21 nM.

With Cn1cc(-c2ccc(CNc3cc(-c4cnc5cc(OCCCN6CCCC6=O)ccn45)ncn3)cc2)cn1 [A145, 1-[3-({3-[6-({[4-(1-methyl-1H-pyrazol-4-yl)phenyl]methyl}amino)pyrimidin-4-yl]imidazo[1,2-a]pyridin-7-yl}oxy)propyl]pyrrolidin-2-one] the IC50 [1] was 250 nM and the IC50 (c-Kit(V654A)) was 41 nM.

Molecule Fc1cc(N2CCCC2)ncc1CNc1cc(-c2cnc3ccccn23)ncn1 [A152, (4-fluoro-6-pyrrolidin-1-yl-pyridin-3-ylmethyl)-(6-imidazo[1,2-a]pyridin-3-yl-pyrimidin-4-yl)-amine] has an IC50 [1] of 370 nM and an IC50 (c-Kit(V654A)) of 3.8 nM.

c1ccn2c(-c3cc(NCc4ccc(-c5ncc[nH]5)cc4)ncn3)cnc2c1 [A157, (6-imidazo[1,2-a]pyridin-3-yl-pyrimidin-4-yl)-[4-(1H-imidazol-2-yl)-benzyl]-amine] showed an IC50 [1] of 1500 nM and an IC50 (c-Kit(V654A)) of 33 nM.

Work on Cn1cc(-c2ccc(CNc3cc(-c4cnc5cc(O)ccn45)ncn3)cc2)cn1 [A160, 3-[6-({[4-(1-methyl-1H-pyrazol-4-yl)phenyl]methyl}amino)pyrimidin-4-yl]imidazo[1,2-a]pyridin-7-ol] yielded an IC50 [1] of 1000 nM and an IC50 (c-Kit(V654A)) of 38 nM.

In the case of COc1ccn2c(-c3cc(NCc4ccc(-c5cnn(C)c5CO)cc4)ncn3)cnc2c1 [A161, [4-(4-{[6-(7-methoxy-imidazo[1,2-a]pyridin-3-yl)-pyrimidin-4-ylamino]-methyl}-phenyl)-2-methyl-2H-pyrazol-3-yl]-methanol], the IC50 [1] is reported as 180 nM and the IC50 (c-Kit(V654A)) is reported as 22 nM.

Cn1cc(-c2ccc(CNc3cc(-c4cnc5cc(N)ccn45)ncn3)cc2)cn1 [A162, 6-{7-aminoimidazo[1,2-a]pyridin-3-yl}-N-{[4-(1-methyl-1H-pyrazol-4-yl)phenyl]methyl}pyrimidin-4-amine] was tested, and the IC50 [1] was 180 nM and the IC50 (c-Kit(V654A)) was 7.4 nM.

Molecule Cn1cc(-c2ccc(CNc3cc(-c4cnc5cc(NC(C)(C)CO)ccn45)ncn3)cc2)cn1 [A163, 2-methyl-2-(3-{6-[4-(1-methyl-1H-pyrazol-4-yl)-benzylamino]-pyrimidin-4-yl}-imidazo[1,2-a]pyridin-7-ylamino)-propan-1-ol] has an IC50 [1] of 1900 nM and an IC50 (c-Kit(V654A)) of 85 nM.

With Cn1cc(-c2ccc(CNc3cc(-c4cnc5cc(OC6CCNCC6)ccn45)ncn3)cc2)cn1 [A164, N-{[4-(1-methyl-1H-pyrazol-4-yl)phenyl]methyl}-6-[7-(piperidin-4-yloxy)imidazo[1,2-a]pyridin-3-yl]pyrimidin-4-amine] the IC50 [1] was 260 nM and the IC50 (c-Kit(V654A)) was 9 nM.

Cn1cc(-c2ccc(CNc3cc(-c4cnc5cc(CCN6CCC(F)(F)C6)ccn45)ncn3)cc2)cn1 [A169, (6-{7-[2-(3,3-difluoro-pyrrolidin-1-yl)-ethyl]-imidazo[1,2-a]pyridin-3-yl}-pyrimidin-4-yl)-[4-(1-methyl-1H-pyrazol-4-yl)-benzyl]-amine] was tested, and the IC50 [1] was 300 nM and the IC50 (c-Kit(V654A)) was 32 nM.

Cn1cc(-c2ccc(CNc3cc(-c4cnc5cc(N6CCOCC6)ccn45)ncn3)cc2)cn1 [A180, [4-(1-methyl-1H-pyrazol-4-yl)-benzyl]-[6-(7-morpholin-4-yl-imidazo[1,2-a]pyridin-3-yl)-pyrimidin-4-yl]-amine] was tested, and the IC50 [1] was 77 nM and the IC50 (c-Kit(V654A)) was 7.8 nM.

For CN1CCN(c2ccn3c(-c4cc(NCc5ccc(-c6cnn(C)c6)cc5)ncn4)cnc3c2)CC1 [A181, {6-[7-(4-methyl-piperazin-1-yl)-imidazo[1,2-a]pyridin-3-yl]-pyrimidin-4-yl}-[4-(1-methyl-1H-pyrazol-4-yl)-benzyl]-amine], the IC50 [1] was 110 nM and the IC50 (c-Kit(V654A)) was 15 nM.

Cn1cc(-c2ccc(CNc3cc(-c4cnc5cc(OC6CCN(C7COC7)CC6)ccn45)ncn3)cc2)cn1 [A182, N-{[4-(1-methyl-1H-pyrazol-4-yl)phenyl]methyl}-6-(7-{[1-(oxetan-3-yl)piperidin-4-yl]oxy}imidazo[1,2-a]pyridin-3-yl)pyrimidin-4-amine] gave an IC50 [1] of 92 nM and an IC50 (c-Kit(V654A)) of 11 nM.

Cn1cc(-c2ccc(CNc3cc(-c4cnc5cc(OCC6CCN(C7CC7)CC6)ccn45)ncn3)cc2)cn1 [A187, {6-[7-(1-cyclopropyl-piperidin-4-ylmethoxy)-imidazo[1,2-a]pyridin-3-yl]-pyrimidin-4-yl}-[4-(1-methyl-1H-pyrazol-4-yl)-benzyl]-amine] gave an IC50 [1] of 380 nM and an IC50 (c-Kit(V654A)) of 7.5 nM.

Molecule Cn1cc(-c2ccc(CNc3cc(-c4cnc5cc(OCC6CCN(CC#N)CC6)ccn45)ncn3)cc2)cn1 [A188, [4-(3-{6-[4-(1methyl-1H-pyrazol-4-yl)-benzylamino]-pyrimidin-4-yl}-imidazo[1,2-a]pyridin-7-yloxymethyl)-piperidin-1-yl]-acetonitrile] has an IC50 [1] of 190 nM and an IC50 (c-Kit(V654A)) of 9.5 nM.

In the case of COCCN1CCC(COc2ccn3c(-c4cc(NCc5ccc(-c6cnn(C)c6)cc5)ncn4)cnc3c2)CC1 [A190], the IC50 [1] is reported as 170 nM and the IC50 (c-Kit(V654A)) is reported as 3.8 nM.

For COCCN1CCC(COc2ccn3c(-c4cc(NCc5ccc(-c6cnn(C)n6)cc5)ncn4)cnc3c2)CC1 [A191, (6-{7-[1-(2-methoxy-ethyl)-piperidin-4-ylmethoxy]-imidazo[1,2-a]pyridin-3-yl}-pyrimidin-4-yl)-[4-(2-methyl-2H-[1,2,3]triazol-4-yl)-benzyl]-amine], the IC50 [1] was 39 nM and the IC50 (c-Kit(V654A)) was 2.2 nM.

For Cn1ncc(-c2ccc(CNc3cc(-c4cnc5cc(OCC6CCN(CC(F)F)CC6)ccn45)ncn3)cc2)n1 [A193, (6-{7-[1-(2,2-difluoro-ethyl)-piperidin-4-ylmethoxy]-imidazo[1,2-a]pyridin-3-yl}-pyrimidin-4-yl)-[4-(2-methyl-2H-[1,2,3]triazol-4-yl)-benzyl]-amine], the IC50 [1] was 26 nM and the IC50 (c-Kit(V654A)) was 19 nM.

For Cn1cc(-c2ccc(CNc3cc(-c4cnc5cc(OCCN6C[C@@H](F)[C@@H](F)C6)ccn45)ncn3)cc2)cn1 [A209, (6-{7-[2-((3S,4R)-3,4-difluoro-pyrrolidin-1-yl)-ethoxy]-imidazo[1,2-a]pyridin-3-yl}-pyrimidin-4-yl)-[4-(1-methyl-1H-pyrazol-4-yl)-benzyl]-amine], the IC50 [1] was 78 nM and the IC50 (c-Kit(V654A)) was 9.5 nM.

Cn1cc(-c2ccc(CNc3cc(-c4cnc5cc(OCCN6CCC[C@@H]7OCC[C@@H]76)ccn45)ncn3)cc2)cn1 [A210, (6-{7-[(3aS,7aS)-2-(hexahydro-furo[3,2-b]pyridin-4-yl)-ethoxy]-imidazo[1,2-a]pyridin-3-yl}-pyrimidin-4-yl)-[4-(1-methyl-1H-pyrazol-4-yl)-benzyl]-amine] gave an IC50 [1] of 100 nM and an IC50 (c-Kit(V654A)) of 6.5 nM.

Work on Cn1cc(-c2ccc(CNc3cc(-c4cnc5cc(OCCCCN6CCC6)ccn45)ncn3)cc2)cn1 [A225, {6-[7-(4-azetidin-1-yl-butoxy)-imidazo[1,2-a]pyridin-3-yl]-pyrimidin-4-yl}-[4-(1-methyl-1H-pyrazol-4-yl)-benzyl]-am amine] yielded an IC50 [1] of 57 nM and an IC50 (c-Kit(V654A)) of 15 nM.

With CC(COc1ccn2c(-c3cc(NCc4ccc(-c5cnn(C)n5)cc4)ncn3)cnc2c1)CN1CCCC1 (centres unmarked) [A227, {6-[7-(2-methyl-3-pyrrolidin-1-yl-propoxy)-imidazo[1,2-a]pyridin-3-yl]-pyrimidin-4-yl}-[4-(2-methyl-2H-[1,2,3]triazol-4-yl)-benzyl]-amine] the IC50 [1] was 48 nM and the IC50 (c-Kit(V654A)) was 3.3 nM.
